This is an account of results in PMC4109680, “Identification and Preclinical Pharmacology of the γ-Secretase Modulator BMS-869780” (International Journal of Alzheimer's Disease, 2014).

A short description of data set [1]: Prediction of human PK and dose by allometric scaling combined with rat PK/PD. The method, then:
Interspecies allometric scaling adjusted for brain weight was used to predict human CLTp, while simple allometric scaling was used to predict Vss. Briefly, the Vss and brain weight adjusted CLTp values from nonclinical species were plotted against body weight on a log-log scale to yield estimates of Vss and CLTp × brain weight in humans. The estimated CLTp × brain weight for human was adjusted for the brain weight of humans to yield a predicted CLTp. […] Noncompartmental analysis was performed using WinNonlin software (version 5.0; Pharsight Corporation, Mountain View, CA). The k a for each species was obtained from the IV and PO (nanosuspensions) of rat, dog, and cynomolgus monkey by deconvolution of plasma concentration-time data using Kinetica (version 5.0; Seattle, WA). The bioavailability was estimated from the nanosuspensions from rat, dog, and cynomolgus monkeys. The average k a and F, along with the Vss and CLTp from allometric scaling, were incorporated into a two-compartment model to predict the human oral plasma concentration-time profiles.

Data set [2] deals with brain Aβ1-42, brain Aβ1-40, plasma Aβ1-40. The data set is described as follows: Rat intraperitoneal dose response, brain and plasma Aβ 5 hours after dosing. It is filed as in vivo. Particulars: for IC50: Rattus norvegicus. The method, then:
IC50 determinations for Aβ1-42 and Aβ1-40 in H4-APPsw cultures in 384-well format were determined using homogeneous time-resolved fluorescence immunoassays as previously described. The principle of these assays is illustrated in Figures 1(c) and 1(d). In other experiments using H4-APPsw cultures, Aβ was quantified by ELISA; for Aβ1-42 the combination of monoclonal antibodies was 26D6 and 565-HRP; for Aβ1-40 it was TSD and 26D6-HRP, and for Aβ1-x it was 4G8 and 26D6-HRP. In some experiments a novel 4-plex Aβ electrochemiluminescence immunoassay was used (Mesoscale Discovery catalog number N45ZA-1). Briefly, the 4-plex was carried out in 96-well format, with 4 separate spots of capture antibodies in each well. The 96-well plates were prepared by the manufacturer, with spots of monoclonal antibodies for Aβ1-42, Aβ1-40, and Aβ1-38, and an additional fourth spot of streptavidin in each well. Plates were initially incubated with blocking buffer (5% BSA in phosphate buffered saline, 200 μL per well) for 2 hours at ambient temperature and then with D2A6H-biotin conjugate (50 ng/mL in 1% BSA, phosphate buffered saline, 25 μL per well) for 1 hour. Plates were then rinsed with phosphate buffered saline before addition of experimental samples for determination of Aβ1-42, Aβ1-40, Aβ1-38, and Aβ1-37 levels, following the manufacturer's instructions as for the Aβ 3-plex kit (catalog number K15148E-1). Rat brain extracts for use in the 4-plex assay were made in 0.2% diethylamine, as previously described. For detection of rat Aβ peptides in the 4-plex (Figure 5), 252Q6-sulfo-tag conjugate was used, and for detection of human Aβ peptides from cell cultures 6E10-sulfo-tag conjugate was used. For Aβ in transiently transfected PS1/PS2 dKO fibroblasts, Aβ1-42 was quantified using an ELISA kit (WACO), and Aβ1-40 was quantified by ELISA as described above for H4-APPsw cultures. For triple transgenic mice (3xTg; [63]), human transgenic Aβ1-42 was assayed in brain homogenates using an ELISA kit (WACO). For the rat and mouse experiments illustrated in Figures 7 and 8, brain samples were prepared by solid phase extraction, and endogenous rat brain Aβ1-42 and Aβ1-40 were quantified by ELISA as previously described for wild type mice. For brain extracts made using solid phase extraction, calibration of Aβ was relative, based on the approximately linear response of the assay in the range tested. For brain extracts made in 0.2% diethylamine, Aβ1-42, Aβ1-40, Aβ1-38, and Aβ1-37 concentrations in brain and cell culture samples were determined by fitting the results of immunoassays against calibration curves derived from a range of dilutions of the corresponding synthetic peptides on each assay plate using a quadratic curve fit (Graphpad Prizm 5.0). Aβ1-x was calibrated in the same way against synthetic Aβ1-40 peptide. Results were expressed in units of pM, corrected for sample dilution.
Figure 7 BMS-869780 dose response and evaluation of residual Aβ levels in rat brain. (a) Groups of rats received intraperitoneal (IP) injections of vehicle or BMS-869780 at doses of 100, 30, 10, 3, 1, and 0.3 mg/kg. Additional rats were dosed with GSI BMS-698861 at 30 mg/kg as a positive control for Aβ-lowering. Group sizes were seven rats for each dose of BMS-869780 and 14 rats for vehicle and GSI dose groups. Brain and plasma were harvested 5 hours after dosing. Brain Aβ1-42 (green), brain Aβ1-40 (blue), brain Aβ1-x (black), and plasma Aβ1-40 (red) were determined. Values are expressed as % relative to vehicle group mean. Whiskers represent standard error. ⊗Aβ1-x was not determined in the groups dosed at 3, 1, and 0.3 mg/kg. (b) Brain Aβ1-40 was plotted against brain Aβ1-42 for each rat dosed with BMS-869780 (black ▼) and for each rat dosed with vehicle (grey ●). Values are expressed as % relative to vehicle group mean. Whiskers represent standard error. […]

Setting [3] is: Human 700 mg PO suspension (predicted steady state).
[4] abbreviates: 3 mg/kg IP, 5 hours after dosing.

Read-outs that look alike come from different tables or passages of the source.

In general, Cmax refers to the highest concentration seen after dosing. Consider `COc1cc(Nc2nc3n(n2)CCCC[C@H]3c2ccc(F)cc2)ccc1-n1cnc(Cl)c1` [BMS-869780], for which, in data set [1] (setting [3]), the “Brain Aβ ABEC 24 hr Aβ1-42” value is recorded as 25% and the “Plasma AUC 0–24 hr” value was 17.8 µM·h. Also, in data set [1] (plasma, oral, Human 700 mg once daily (predicted steady state)), the maximum concentration (Cmax) is 1270 nM. In addition, the AUC(0-t) in data set [1] (plasma, Human 700 mg PO suspension (predicted steady state), read-out: Plasma AUC 0–24 hr) was 17.6 µM·h. Besides, the “plasma Aβ1-40 lowering” value in data set [2] (0.3 mg/kg IP, 5 hours after dosing) is reported as “ca. 50%”. In data set [2] (setting [4]), the “brain Aβ1-40 lowering” value is listed as “ca. 50%” and the “brain Aβ1-42 lowering” value is listed as “ca. 50%”. For the same molecule, in data set [2] (% relative to vehicle), the “residual Aβ1-40 assay signal at high plasma concentrations (best fit curve)” value was found to be 11% and the “residual Aβ1-42 assay signal at high plasma concentrations (best fit curve)” value is given as 29%. Also, the IC50 in data set [2] (ip, four-parameter fit, 95% confidence interval 44–158 nM, read-out: apparent IC50 (plasma concentration) for plasma Aβ1-40) is 84 nM. Moreover, the IC50 in data set [2] (ip, four-parameter fit, 95% confidence interval 618–1053 nM, read-out: apparent IC50 (plasma concentration) for brain Aβ1-42) was found to be 807 nM. For the same molecule, the IC50 in data set [2] (ip, four-parameter fit, 95% confidence interval 704–1264 nM, read-out: apparent IC50 (plasma concentration) for brain Aβ1-40) amounted to 943 nM. Further, the IC50 in data set [2] (IP, 5 hours, read-out: concentration in plasma associated with 50% lowering of brain Aβ1-42) is ~1000 nM. Also, in data set [2] (highest three doses (10, 30, 100 mg/kg IP), 5 hours), the “brain Aβ1-x levels” value is “not affected”. Further, the “lowering of brain Aβ1-42 and Aβ1-40” value in data set [2] (in mice and rats) is on record as ≥ 75%.
